# Laboratory results as given in patent US8686011B2, “Inhibitors of 11-β-hydroxy steroid dehydrogenase type 1” (Amgen Inc., priority 2004, dated 2014).
# What was measured:
# [1] = molecular target: T1, 11β-HSD1 (human enzyme) (Homo sapiens, UniProt P28845); experiment: Enzyme Assay (SPA, 3H-cortisone, purified HSD-1 enzyme prep), human enzyme; assay type: biochemical; details: species of enzyme not given
# T1 construct: made in house
# [2] = system: intraocular pressure; details: ingestion, normal subjects; cited from earlier work
# T1 sequence (P28845 whole entry): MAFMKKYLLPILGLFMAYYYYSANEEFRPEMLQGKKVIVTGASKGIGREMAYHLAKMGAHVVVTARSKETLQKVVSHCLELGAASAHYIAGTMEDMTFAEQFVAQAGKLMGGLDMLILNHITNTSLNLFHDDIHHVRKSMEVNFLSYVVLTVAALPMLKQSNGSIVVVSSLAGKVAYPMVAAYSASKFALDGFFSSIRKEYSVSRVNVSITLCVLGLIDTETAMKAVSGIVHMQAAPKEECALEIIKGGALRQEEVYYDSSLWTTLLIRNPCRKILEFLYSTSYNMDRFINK
SMILES,IC50 [1] [nM],reduction of intraocular pressure [2] [%]
"CC1(CC(F)(F)F)SC(N[C@@H]2C[C@H]3CC[C@@H]2C3)=NC1=O (stereo partly drawn) [2-((1R,2R,4S)-bicyclo[2.2.1]heptan-2-ylamino)-5-methyl-5-(2,2,2-trifluoroethyl)thiazol-4(5H)-one]",< 20,
"CC(C)[C@@]1(C)SC(Nc2ccccc2Cl)=NC1=O [(5R)-2-((2-chlorophenyl)amino)-5-methyl-5-(1-methylethyl)-1,3-thiazol-4(5H)-one]",< 20,
CC(C)C1(C)SC(N[C@H](C)c2ccc(F)cc2)=NC1=O (stereo partly drawn) [2-((R)-1-(4-fluorophenyl)ethylamino)-5-isopropyl-5-methylthiazol-4(5H)-one],< 20,
CC1(c2ccncc2)SC(Nc2ccccc2Cl)=NC1=O (centres unmarked) [2-(2-chlorophenylamino)-5-methyl-5-(pyridin-4-yl)thiazol-4(5H)-one],< 20,
"CC1(c2ccccc2)SC(Nc2ccccc2Cl)=NC1=O (centres unmarked) [2-((2-chlorophenyl)amino)-5-methyl-5-phenyl-1,3-thiazol-4(5H)-one]",< 20,
C[C@H](NC1=NC(=O)C(C)(c2ccncc2)S1)c1ccc(F)cc1 (stereo partly drawn) [2-((S)-1-(4-fluorophenyl)ethylamino)-5-methyl-5-(pyridin-4-yl)thiazol-4(5H)-one],< 20,
"CO[C@@H]1CCC[C@@]2(C1)SC(NC1CCCCCCC1)=NC2=O [(5S,7R)-2-(cyclooctylamino)-7-(methyloxy)-1-thia-3-azaspiro[4.5]dec-2-en-4-one]",< 20,
"CC(C)C1(C)SC(NC23CC4CC(CC(F)(C4)C2)C3)=NC1=O (centres unmarked) [2-((3-fluorotricyclo[3.3.1.1˜3,7˜]dec-1-yl)amino)-5-methyl-5-(1-methylethyl)-1,3-thiazol-4(5H)-one]",< 20,
CC1([C@H]2CCOC2)SC(NCC2CCCCC2)=NC1=O (stereo partly drawn) [2-(cyclohexylmethylamino)-5-methyl-5-((S)-tetrahydrofuran-3-yl)thiazol-4(5H)-one],< 20,
CC1(C2CCOCC2)SC(Nc2ccccc2Cl)=NC1=O (centres unmarked) [2-(2-chlorophenylamino)-5-methyl-5-(tetrahydro-2H-pyran-4-yl)thiazol-4(5H)-one],< 20,
O=C1N=C(NCC2CCCCC2)SC1[C@H]1CCOC1 (stereo partly drawn) [2-(cyclohexylmethylamino)-5-(S)-tetrahydrofuran-3-yl)thiazol-4(5H)-one],< 20,
CC1(C)[C@@H](OC(=O)CCC(=O)O)CC[C@]2(C)[C@H]3C(=O)C=C4[C@@H]5C[C@@](C)(C(=O)O)CC[C@]5(C)CC[C@@]4(C)[C@]3(C)CC[C@@H]12 [carbenoxolone],,20
O=C1N=C(Nc2ccccc2Cl)SC1C1CCCCC1 (centres unmarked) [2-(2-chlorophenylamino)-5-cyclohexylthiazol-4(5H)-one],< 20,
O=C1N=C(Nc2ccccc2F)SC1[C@H]1CCOC1 (stereo partly drawn) [2-(2-fluorophenylamino)-5-((S)-tetrahydrofuran-3-yl)thiazol-4(5H)-one],< 20,
CC1(c2ccncc2)SC(Nc2ccccc2C(F)(F)F)=NC1=O (centres unmarked) [5-methyl-5-(pyridin-4-yl)-2-(2-(trifluoromethyl)phenylamino)thiazol-4(5H)-one],< 20,
"Cc1c(Cl)cccc1NC1=NC(=O)C(C(C)C)S1 (centres unmarked) [2-((3-chloro-2-methylphenyl)amino)-5-(1-methylethyl)-1,3-thiazol-4(5H)-one]",< 20,
"C[C@@]1(c2ccccc2)SC(Nc2ccccc2Cl)=NC1=O [(5S)-2-((2-chlorophenyl)amino)-5-methyl-5-phenyl-1,3-thiazol-4(5H)-one]",< 20,
"Cc1ccc(F)cc1NC1=NC(=O)C(C(C)C)S1 (centres unmarked) [2-((5-fluoro-2-methylphenyl)amino)-5-(1-methylethyl)-1,3-thiazol-4(5H)-one]",< 20,
CC(C)C1(C)SC(N[C@@H](C)C2CCCCC2)=NC1=O (stereo partly drawn) [2-((S)-1-cyclohexylethylamino)-5-isopropyl-5-methylthiazol-4(5H)-one],< 20,
O=C1N=C(Nc2ccccc2F)SC12CCCC2 [2-((2-fluorophenyl)amino)-1-thia-3-azaspiro[4.4]non-2-en-4-one],< 20,
O=C1N=C(Nc2ccccc2Cl)SC1C1CCCC1 (centres unmarked) [2-(2-chlorophenylamino)-5-cyclopentylthiazol-4(5H)-one],< 20,
"CCC1(C)SC(NC23CC4CC(CC(C4)C2)C3)=NC1=O (centres unmarked) [5-ethyl-5-methyl-2-(tricyclo[3.3.1.1˜3,7˜]dec-1-ylamino)-1,3-thiazol-4(5H)-one]",< 20,
C[C@H](NC1=NC(=O)C(C)(c2ccncc2)S1)c1ccccc1F (stereo partly drawn) [2-((S)-1-(2-fluorophenyl)ethylamino)-5-methyl-5-(pyridin-4-yl)thiazol-4(5H)-one],< 20,
"CC(C)C1SC(Nc2ccccc2Cl)=NC1=O (centres unmarked) [2-((2-chlorophenyl)amino)-5-(1-methylethyl)-1,3-thiazol-4(5H)-one]",< 20,
O=C1N=C(Nc2ccccc2F)SC1C1CCCC1 (centres unmarked) [5-cyclopentyl-2-(2-fluorophenylamino)thiazol-4(5H)-one],< 20,
"CCCC1(C)SC(N[C@@H]2C[C@H]3CC[C@@H]2C3)=NC1=O (stereo partly drawn) [2-((1R,2R,4S)-bicyclo[2.2.1]heptan-2-ylamino)-5-methyl-5-propylthiazol-4(5H)-one]",< 20,
